According to patent US6486161B1, “Use of rifamycin derivative for treating mastitis in a domestic animal” (priority 2000, dated 2002):
In brackets after ≈: the same amount, converted by molar mass. Where two headings read alike, the source gives them in different places.

What was measured:
[1] = tested on: Staphylococcus aureus 6097; experiment: Dose titration in the mouse mastitis model (S. aureus-induced murine mastitis); assay type: in vivo; conditions: mice, read 6 days after infection; for ED (mg/kg/d) Mastitis: 50% of mice without mastitis; for ED (mg/kg/d) Culture: 50% of mice with no bacteria cultured from gland
[2] = tested on: Staphylococcus aureus 9203; experiment: S. aureus intracellular killing assay in bovine PMN; assay type: cell-based; conditions: overnight incubation (18 to 21 hours)
Protocol: The therapeutic effect of the rifamycin derivative (1) was determined by S. aureus intracellular killing assay in bovine polymorphonuclear neutrophil (PMN).
The procedure for PMN isolation was as described in Carlton et al. (Proc. Soc. Exp. Biol. Med. 142: 853-858 (1973)).
Bovine blood collected by venipuncture in 50-ml syringes containing 1.5% EDTA (pH 6.8) was centrifuged at 1,000×g for 25 min. The plasma-buffer layer and the top few millileters were discarded. The packed erythrocyte fraction was pooled in 0.8% NaCl-phosphate buffer (pH 6.8) and 10 ml was placed in 20 ml of sterile water for 40 seconds to lyse the erythrocytes. Immediately thereafter, 10 ml of a 2.7% NaCl-phosphate buffer solution was added to restore isotonicity. The leukocytes, consisting of ≦84% PMNs, were washed twice and suspended in HBSS. PMNs were adjusted to a final concentration of 10^7 cells per ml.
The intracellular killing assay was carried out as described in Sanchez et al. (Antimicrobial Agents and Chemotherapy 29(4): 634-638 (1986)).
Bovine blood PMNs and bacteria (1:1) were suspended in HBSS containing 10% heterologous bovine serum. The mixture was incubated for 90 minutes at 37° C. in Erlenmeyer flasks with rotational mixing at 110 rpm. Lysostaphin (5 μg/ml) was added to the mixture for the final 15 minutes of incubation. The infected PMNs were washed 3 times by low-speed centrifugation and suspended in HBSS. Cells were pipetted (1 ml) into each well of a six-well cluster dish (Bellco Glass, Inc., Vineland, N.J.) at 5×10^6 PMNs per well. PMNs were allowed to attach and form a monolayer for 10 minutes at 37° C. The supernatant fluid with unattached cells was discarded, and 2 ml of fresh HBSS was added to each well. The rifamycin derivatives to be tested were then added to the wells (one six-well plate per drug). These derivatives were dissolved in dimethylsulfoxide, and then diluted in HBSS to final solvent concentrations of 0.01% (vol/vol) or less.
After overnight incubation (18 to 21 hours) at 37° C. with 1% CO2, lysostaphin (5 μg/ml) was added to each well for 15 min (at 37° C.) to kill extracellular bacteria. The monolayers were washed with HBSS, and the cells were lysed by addition of 1 ml of water to each well. The number of viable bacteria was then estimated by plate counts on brain heart infusion agar. […] The results are shown in Table 2, wherein R is the alkyl group in the rifamycin derivative (1).

[3] = tested on: Staphylococcus aureus 9203; experiment: MIC against the strain of the intracellular killing assay; assay type: cell-based
[4] = tested on: S. aureus 30857, a rifampin-resistant isolate; experiment: MIC, microbroth dilution, strain 30857; assay type: cell-based, Staphylococcus aureus; conditions: for MIC: strain 30857
Protocol: (§1) Four S. aureus strains were used: S. aureus 30857, a rifampin-resistant isolate: S. aureus 6097, a strain used in the mouse mastitis test and originally from a case of gangrenous bovine mastitis; S. aureus B83-1, derived from the Newbould 305 strain; and S. aureus ATCC 29213, the in vitro control stain recommended by NCCLS.
(§2) All S. aureus strains were maintained on 3 mm glass beads immersed in trypticase soy broth (BBL Microbiology Systems, Cockeysville, Md.) with 10% glycerol and held at −70° C. until revived. Prior to testing, the strains were subcultured on tryptose blood agar base (Difco, Detroit, Mich.) supplemented with 5% sheep blood for 24 hours at 35° C.
(§3) These compounds were dissolved in 95% ethanol, a solution which was then diluted to 10% ethanol with sterile distilled water. Further dilutions were conducted in water.
(§4) MIC (Minimum Inhibitory Concentration) determinations were performed using the microbroth dilution method. (National Committee for Clinical Laboratory Standards, 1990 Approved Standard […]. Methods for dilution antimicrobial susceptibility tests for bacteria that grow aerobically, 3rd edition. National Committee for Clinical Laboratory Standards, Villanova, Pa.) The results are shown in Table 3, wherein R is the alkyl group R in the rifamycin derivative (1).

S. aureus 6097 = experiment: MIC, microbroth dilution, strain 6097; assay type: cell-based, Staphylococcus aureus
Protocol: as §1, §2, §3, §4

S. aureus B83-1 = experiment: MIC, microbroth dilution, strain B83-1; assay type: cell-based, Staphylococcus aureus
Protocol: as §1, §2, §3, §4

S. aureus ATCC 29213 [5] = experiment: MIC, microbroth dilution, strain ATCC 29213; assay type: cell-based, Staphylococcus aureus
Protocol: as §1, §2, §3, §4

[6] = tested on: S. aureus 30857, a rifampin-resistant isolate; assay type: cell-based, Staphylococcus aureus; conditions: strain 30857
Protocol: (§5) The mutation frequency for development of resistance to the rifamycin derivative (1) as compared to rifampin was determined with selected Staphylococcus aureus strains.
as §1, §2, §3
(§6) The mutation frequency for development of resistance to the compounds tested was determined by the following method. A single colony of each strain was removed from the surface of a blood agar plate with a cotton swab, suspended in 5 ml of Mueller-Hinton broth (BBL), and streaked on the entire surface of five Mueller-Hinton agar plates. The plates were incubated overnight under aerobic conditions at 35° C., growth was removed from the agar using a sterile cotton swab, and the bacteria were suspended in 10 ml physiological saline. This bacterial suspension was the inoculum for the mutation frequency determinations. Standard plate counts were performed on the inoculum by performing serial dilutions and plating a 0.1 ml aliquot on the surface of ten Mueller-Hinton agar plates at each concentration. The plates were incubated for 18-24 hours at 35° C. under aerobic conditions and colony counts performed. Mean bacterial counts were calculated for the inoculum with each strain.
(§7) A 0.1 ml aliquot of the inoculum was then used to inoculate the entire surface of ten plates each containing 1, 10, and 100 μg/ml of the test antimicrobial agents. The plates were incubated for 18-24 hours at 35° C. under aerobic conditions and colony counts performed. Mean bacterial counts were calculated for each antimicrobial concentration and the mutation frequency calculated by dividing the number of colonies which grew on the drug containing media by the inoculum size.

S. aureus ATCC 29213 [7] = experiment: Mutation frequency for resistance, strain ATCC 29213; assay type: cell-based, Staphylococcus aureus
Protocol: as §5, §1, §2, §3, §6, §7

[8] = route IMM (intramammary), 1 hour after infection
[9] = Staphylococcus aureus, read-out: MIC

In the case of `COC1/C=C/OC2(C)Oc3c(C)c(O)c4c(=O)c(c5oc6cc(N7CCN(C)CC7)cc(O)c6nc-5c4c3C2=O)NC(=O)/C(C)=C\C=C\C(C)C(O)C(C)C(O)C(C)C(OC(C)=O)C1C` (stereo not shown) [R = methyl], the “ED (mg/kg/d) Mastitis” value [1, 8] was 0.3 mg/kg/day, the “ED (mg/kg/d) Culture” value ([1]; route IMM (intramammary)) was 0.3 mg/kg/day and the “ED (mg/kg/d) Culture” value ([1]; route SC (subcutaneous)) was 0.5 mg/kg/day. For the same compound, the “ED (mg/kg/d) Mastitis” value ([1]; route SC (subcutaneous)) was 0.2 mg/kg/day, the “% reduction” value ([2]; 1X MIC) was 92.0% and the “CFU/ml ISD (×10^3)” value ([2]; 1X MIC) was 0.3 ± 0.1 CFU/ml (×10^3). The “% reduction” value ([2]; 100X MIC) was 100%, the “CFU/ml ISD (×10^3)” value ([2]; 100X MIC) was 0.0 CFU/ml (×10^3) and the MIC [3] was “≦0.03 μg/ml”. The “effectiveness against rifampin-resistant strains” value ([4]; MIC, in words) was “effective against rifampin-resistant strains”, the MIC [4] was 500 ng/mL (≈ 556 nM) and the MIC (S. aureus 6097) was 0.061 ng/mL (≈ 0.0679 nM). For the same compound, the MIC (S. aureus B83-1) was 0.061 ng/mL (≈ 0.0679 nM), the MIC (S. aureus ATCC 29213 [5]) was 0.061 ng/mL (≈ 0.0679 nM) and the Mutation frequency ([6]; 1 μg/ml) was <1.6 × 10^−10. For the same compound, the Mutation frequency ([6]; 10 μg/ml) was <1.6 × 10^−10, the Mutation frequency ([6]; 100 μg/ml) was <1.6 × 10^−10 and the Mutation frequency (S. aureus ATCC 29213 [7]; 1 μg/ml) was 2.1 × 10^−9. The Mutation frequency (S. aureus ATCC 29213 [7]; 10 μg/ml) was <1.1 × 10^−9 and the Mutation frequency (S. aureus ATCC 29213 [7]; 100 μg/ml) was <1.1 × 10^−9.
`CO[C@H]1/C=C/O[C@@]2(C)Oc3c(C)c(O)c4c(O)c(c(/C=N/N5CCN(C)CC5)c(O)c4c3C2=O)NC(=O)/C(C)=C\C=C\[C@H](C)[C@H](O)[C@@H](C)[C@@H](O)[C@@H](C)[C@H](OC(C)=O)[C@@H]1C` [Rifampin, reference compound] was tested, and the “ED (mg/kg/d) Mastitis” value [1, 8] was 0.4 mg/kg/day, the “ED (mg/kg/d) Culture” value ([1]; route IMM (intramammary)) was greater than 2.0 mg/kg/day and the “% reduction” value ([2]; 1X MIC) was 83.0%. The “CFU/ml ISD (×10^3)” value ([2]; 1X MIC) was 0.6 ± 0.3 CFU/ml (×10^3), the “% reduction” value ([2]; 100X MIC) was 85.0% and the “CFU/ml ISD (×10^3)” value ([2]; 100X MIC) was 0.5 ± 0.2 CFU/ml (×10^3). It also gave an MIC ([3]; read-out: MIC) of no more than 30 ng/mL, an MIC [4, 9] greater than 4000 ng/mL and an MIC (S. aureus 6097; [9]) of 1.9 ng/mL (≈ 2.31 nM). For the same compound, the MIC (S. aureus B83-1; Staphylococcus aureus, B831, read-out: MIC) was 1.9 ng/mL (≈ 2.31 nM), the MIC (S. aureus ATCC 29213 [5]; Staphylococcus aureus, ATCC29213, read-out: MIC) was 1.9 ng/mL (≈ 2.31 nM) and the Mutation frequency ([6]; 1 μg/ml) was >1.0 × 10^−7. The Mutation frequency ([6]; 10 μg/ml) was >1.0 × 10^−7, the Mutation frequency ([6]; 100 μg/ml) was >1.0 × 10^−7 and the Mutation frequency (S. aureus ATCC 29213 [7]; 1 μg/ml) was 2.6 × 10^−8. For the same compound, the Mutation frequency (S. aureus ATCC 29213 [7]; 10 μg/ml) was 2.5 × 10^−8 and the Mutation frequency (S. aureus ATCC 29213 [7]; 100 μg/ml) was 1.9 × 10^−8.
